Entries after “also recorded” stand apart in the source; their conditions may differ.
Tested on: A549 cells
Experiment: Toxicity tests of QDQRs on A549 cells (Cellomics Array Scan, Hoechst 33342 / MitoTracker Deep Red)
Format: cell-based, human
Conditions: 16 h incubation
Procedure: The culture medium consisted of 10% FCS in DMEM with 1% PenStrep and sodium pyruvate in each case. The incubation of the cells always took place at 37° C. and a CO2 content of 5%.
The zwitterionic Quantum Dots/Quantum Rods (QDQRs) nanoparticles were examined in various in vitro experiments with regard to their toxicity and non-specific cell uptake. Yellow-emitting QDQRs comprising the short- and long-chain zwitterionic ligand (QDQRs-17a and QDQRs-17b) were used for the studies to investigate a possible influence of the chain length of the ligand on the interactions of the QDQRs with cells. A549 cells were used for both toxicity and cell uptake studies. A549 cells are human basal epithelial cells derived from an adenocarcinoma of the lung which have been cultured as a cell line.
The toxicity of the zwitterionic QDQRs-17a and QDQRs-17b was tested using the Cellomics Array Scan. For the toxicity tests, A549 cells were plated on a 96-well plate and incubated with QDQR solutions in a concentration range of 25 to 500 nM. Cadmium chloride, which was used in a concentration range from 25 to 1,000 μM, was used as the positive control. The increase in the cadmium chloride concentration by a factor of 1,000 is due to the fact that a single QDQR of the tested samples contains about 8,200 cadmium atoms. Assuming that the totality of the nanoparticles dissolve and release the cadmium contained in them, the lowest concentration of 25 nM QDQRs used would correspond to a concentration of 205 μM cadmium chloride. After an incubation period of 16 hours, the cells were blended with a staining solution consisting of the cell nucleus dye Hoechst 33342 and the mitochondrial dye MitoTracker® Deep Red FM and then fixed with formaldehyde solution. The 96-well plates were then read out with the Cellomics Array Scan. A software was used to automatically determine the parameters number of cells, cell nucleus intensity and cell nucleus size using the intensity of the dye by Hoechst, and the transmembrane potential of the mitochondria on the basis of the mitochondrial dye. In addition, microscopic images of the cells were taken to control the number of cells and cell morphology.
For the toxicity tests, A549 cells were plated in culture medium on a 96-well plate (10,000 cells per well) and incubated overnight. When the medium had been sucked off, the samples to be tested (diluted with culture medium, 100 μL per well) were applied in different concentrations and incubated for 16 hours. The samples were then removed and the cells were mixed with 100 μL staining solution (final concentration: 75 nM MitoTracker® Deep Red and 2.5 μg/ml Hoechst 33342 in DMEM with 10% FCS) and incubated for a further 30 minutes. To fix the cells, the staining solution was removed and 100 μL of a warm fixing solution (3.7% formaldehyde in Dulbecco's PBS, DPBS) were added. After 20 minutes, the fixing solution was sucked off and washed twice with DPBS before the samples were measured on the Cellomics Array Scan.

[Cl][Cd][Cl] [cadmium chloride]
morphological changes of the cells or cell nuclei in microscopic images (cadmium chloride at 100 μM or more): get globular | number of cells per well (over the tested concentration range, FIG. 1 A): decreases significantly; also recorded: decreases noticeably | cell nucleus intensity (Hoechst 33342) (over the tested concentration range, FIG. 1 B): decreases significantly | cell nucleus size (over the tested concentration range, FIG. 1 C): decreases significantly | transmembrane potential of the mitochondria (over the tested concentration range, FIG. 1 D): first increases in the concentration range from 50 to 100 μM and then decreases again | concentration at which a toxic effect on the cells is shown (positive control tested 25 to 1,000 μM): ≥ 100 µM
